Among the data in patent publication US9688627B2, “Lactam compounds as EP4 receptor-selective agonists for use in the treatment of EP4-mediated diseases and conditions” (Cayman Chemical Company, Inc., priority 2013, dated 2017) are EC50 values, retold here.

One assay has as its target T1, rat EP4 receptor (Rattus norvegicus, UniProt P43114).
T1 construct: cells seeded on STEP plates
Kind of assay: SEAP activity assay on EP4 STEP plate. Particulars: SEAP luminescence, 6-8 hours of stimulation; read-out: STEP cell functional assay EC50 SEAP/EP4. It is filed as cell-based. From the text: (§1) 2. […] In addition each concentration had triplicates. […] 4. […] Cover the plate with the lid. […] 6. […] 7. […] 8.

In another assay the target is T2, rat EP2 receptor (Rattus norvegicus, UniProt Q62928).
T2 construct: cells seeded on STEP plates
T2 sequence (Q62928 whole entry): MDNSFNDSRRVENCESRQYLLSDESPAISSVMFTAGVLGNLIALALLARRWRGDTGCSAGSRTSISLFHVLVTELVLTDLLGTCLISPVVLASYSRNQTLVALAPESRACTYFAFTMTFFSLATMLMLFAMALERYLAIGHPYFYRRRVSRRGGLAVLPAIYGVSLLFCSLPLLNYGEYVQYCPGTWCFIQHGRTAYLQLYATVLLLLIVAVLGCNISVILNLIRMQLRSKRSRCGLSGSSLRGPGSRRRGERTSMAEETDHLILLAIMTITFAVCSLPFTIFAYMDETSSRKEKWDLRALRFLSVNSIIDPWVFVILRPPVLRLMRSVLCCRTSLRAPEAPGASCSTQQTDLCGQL
Kind of assay: SEAP activity assay on EP2 STEP plate. Type of assay: cell-based. Particulars: SEAP luminescence, 6-8 hours of stimulation; read-out: STEP cell functional assay EC50 SEAP/EP2.
Excerpt: as §1

T1 sequence (P43114 whole entry): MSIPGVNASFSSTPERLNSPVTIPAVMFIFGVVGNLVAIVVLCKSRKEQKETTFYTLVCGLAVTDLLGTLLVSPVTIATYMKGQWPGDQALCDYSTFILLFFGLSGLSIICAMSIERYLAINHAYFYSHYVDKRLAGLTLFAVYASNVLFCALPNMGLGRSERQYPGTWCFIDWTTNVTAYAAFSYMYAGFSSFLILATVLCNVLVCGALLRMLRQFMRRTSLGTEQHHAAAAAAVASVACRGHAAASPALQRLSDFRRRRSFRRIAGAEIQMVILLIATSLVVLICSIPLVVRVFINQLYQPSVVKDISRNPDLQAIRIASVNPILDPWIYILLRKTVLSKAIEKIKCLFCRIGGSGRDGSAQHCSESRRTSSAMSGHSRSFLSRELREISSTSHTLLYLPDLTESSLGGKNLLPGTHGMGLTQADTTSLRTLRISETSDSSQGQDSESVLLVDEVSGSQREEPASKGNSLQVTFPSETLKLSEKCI

Regarding `CCC#CCC(C)[C@@H](O)/C=C/[C@H]1CCC(=O)N1CCCCCCC(=O)O` (mixture of isomers) [Example 2D, 7-((2R)-2-((3R,4R/S,E)-3-hydroxy-4-methylnon-1-en-6-yn-1-yl)-5-oxopyrrolidin-1-yl)heptanoic acid], the EC50 on rat EP4 receptor is 0.145 nM; at rat EP2 receptor, 1420 nM.

Take `CCCC#CCC(C)[C@H](O)/C=C/[C@H]1CCC(=O)N1CCCCCCC(=O)OC` (mixture of isomers) [Example 3A, methyl 7-((2R)-2-((3S,4R/S,E)-3-hydroxy-4-methyldec-1-en-6-yn-1-yl)-5-oxopyrrolidin-1-yl)heptanoate]: the EC50 is 8.64 nM on rat EP4 receptor and 2490 nM on rat EP2 receptor. Regarding `CCCC#CCC(C)[C@@H](O)/C=C/[C@H]1CCC(=O)N1CCCCCCC(=O)OC` (mixture of isomers) [Example 3B, methyl 7-((2R)-2-((3R,4R/S,E)-3-hydroxy-4-methyldec-1-en-6-yn-1-yl)-5-oxopyrrolidin-1-yl)heptanoate], the EC50 is 223 nM on rat EP4 receptor and greater than 10000 nM on rat EP2 receptor. The corresponding values for `CCCC#CCC(C)[C@H](O)/C=C/[C@H]1CCC(=O)N1CCCCCCC(=O)O` (mixture of isomers) [Example 3C, 7-((2R)-2-((3S,4R/S,E)-3-hydroxy-4-methyldec-1-en-6-yn-1-yl)-5-oxopyrrolidin-1-yl)heptanoic acid] are 0.085 nM and 2260 nM. As to `CCCC#CCC(C)[C@@H](O)/C=C/[C@H]1CCC(=O)N1CCCCCCC(=O)O` (mixture of isomers) [Example 3D, 7-((2R)-2-((3R,4R/S,E)-3-hydroxy-4-methyldec-1-en-6-yn-1-yl)-5-oxopyrrolidin-1-yl)heptanoic acid], the values for the EC50 on rat EP4 receptor and at rat EP2 receptor were 29 nM and greater than 10000 nM, respectively. The corresponding values for `CC(CC#Cc1ccccc1)[C@H](O)/C=C/[C@H]1CCC(=O)N1CCCCCCC(=O)O` (mixture of isomers) [Example 4C, 7-((2R)-2-((3S,4R/S,E)-3-hydroxy-4-methyl-7-phenylhept-1-en-6-yn-1-yl)-5-oxopyrrolidin-1-yl)heptanoic acid] are 2.49 nM and 830 nM. For `CC#CCC(C)[C@H](O)/C=C/[C@H]1CCC(=O)N1CCc1ccc(C(=O)OC)cc1` (mixture of isomers) [Example 8A, methyl 4-(2-((2R)-2-((3S,4R/S,E)-3-hydroxy-4-methyloct-1-en-6-yn-1-yl)-5-oxopyrrolidin-1-yl)ethyl)benzoate] the same measures were 6.74 nM and 364 nM.

For the compound `CC#CCC(C)[C@@H](O)/C=C/[C@H]1CCC(=O)N1CCc1ccc(C(=O)OC)cc1` (mixture of isomers) [Example 8B, methyl 4-(2-((2R)-2-((3R,4R/S,E)-3-hydroxy-4-methyloct-1-en-6-yn-1-yl)-5-oxopyrrolidin-1-yl)ethyl)benzoate], on rat EP4 receptor, the EC50 worked out at 1640 nM. Consider `CC#CCC(C)[C@@H](O)/C=C/[C@H]1CCC(=O)N1CCc1ccc(C(=O)O)cc1` (mixture of isomers) [Example 8D, 4-(2-((2R)-2-((3R,4R/S,E)-3-hydroxy-4-methyloct-1-en-6-yn-1-yl)-5-oxopyrrolidin-1-yl)ethyl)benzoic acid], for which the EC50 at rat EP4 receptor amounted to 13.4 nM; on rat EP2 receptor, 1130 nM.

Take `CC(CC#Cc1ccccc1)[C@H](O)/C=C/[C@H]1CCC(=O)N1CCc1ccc(C(=O)O)cc1` (mixture of isomers) [Example 11C, 4-(2-((2R)-2-((3S,4R/S,E)-3-hydroxy-4-methyl-7-phenylhept-1-en-6-yn-1-yl)-5-oxopyrrolidin-1-yl)ethyl)benzoic acid]: the EC50 on rat EP4 receptor is 0.054 nM; on rat EP2 receptor, 2960 nM. On to `CC(CC#Cc1ccccc1)[C@@H](O)/C=C/[C@H]1CCC(=O)N1CCc1ccc(C(=O)O)cc1` (mixture of isomers) [Example 11D, 4-(2-((2R)-2-((3R,4R/S,E)-3-hydroxy-4-methyl-7-phenylhept-1-en-6-yn-1-yl)-5-oxopyrrolidin-1-yl)ethyl)benzoic acid], for which the EC50 at rat EP4 receptor is 3.51 nM; on rat EP2 receptor, 1750 nM.

As to `CC#CCC(C)[C@H](O)/C=C/[C@H]1CCC(=O)N1Cc1ccc(CC(=O)O)cc1` (mixture of isomers) [Example 12C, 2-(4-(((2R)-2-((3S,4R/S,E)-3-hydroxy-4-methyloct-1-en-6-yn-1-yl)-5-oxopyrrolidin-1-yl)methyl)phenyl)acetic acid], the EC50 at rat EP4 receptor was 2290 nM; on rat EP2 receptor it was greater than 10000 nM. Regarding `CC#CCC(C)[C@@H](O)/C=C/[C@H]1CCC(=O)N1Cc1ccc(CC(=O)O)cc1` (mixture of isomers) [Example 12D, 2-(4-(((2R)-2-((3R,4R/S,E)-3-hydroxy-4-methyloct-1-en-6-yn-1-yl)-5-oxopyrrolidin-1-yl)methyl)phenyl)acetic acid], the EC50 on rat EP4 receptor and at rat EP2 receptor was greater than 10000 nM throughout. With `CCC#CCC(C)[C@H](O)/C=C/[C@H]1CCC(=O)N1C/C=C\c1ccc(C(=O)O)s1` (mixture of isomers) [Example 15C, 5-((Z)-3-((2R)-2-((3S,4R/S,E)-3-hydroxy-4-methylnon-1-en-6-yn-1-yl)-5-oxopyrrolidin-1-yl)prop-1-en-1-yl)thiophene-2-carboxylic acid], the figures for the EC50 at rat EP4 receptor and on rat EP2 receptor were 947 nM and greater than 10000 nM, respectively. The corresponding values for `CCC#CCC(C)[C@@H](O)/C=C/[C@H]1CCC(=O)N1C/C=C\c1ccc(C(=O)O)s1` (mixture of isomers) [Example 15D, 5-((Z)-3-((2R)-2-((3R,4R/S,E)-3-hydroxy-4-methylnon-1-en-6-yn-1-yl)-5-oxopyrrolidin-1-yl)prop-1-en-1-yl)thiophene-2-carboxylic acid] are 1600 nM and greater than 10000 nM. Consider `CC(CC#Cc1ccccc1)[C@H](O)/C=C/[C@H]1CCC(=O)N1C/C=C\c1ccc(C(=O)O)s1` (mixture of isomers) [Example 16C, 5-((Z)-3-((2R)-2-((3S,4R/S,E)-3-hydroxy-4-methyl-7-phenylhept-1-en-6-yn-1-yl)-5-oxopyrrolidin-1-yl)prop-1-en-1-yl)thiophene-2-carboxylic acid], for which the results for the EC50 on rat EP4 receptor and on rat EP2 receptor were 67.2 nM and greater than 10000 nM, respectively.

`CC(CC#Cc1ccccc1)[C@@H](O)/C=C/[C@H]1CCC(=O)N1C/C=C\c1ccc(C(=O)O)s1` (mixture of isomers) [Example 16D, 5-((Z)-3-((2R)-2-((3R,4R/S,E)-3-hydroxy-4-methyl-7-phenylhept-1-en-6-yn-1-yl)-5-oxopyrrolidin-1-yl)prop-1-en-1-yl)thiophene-2-carboxylic acid]: the EC50 at rat EP4 receptor was 1200 nM; on rat EP2 receptor it was greater than 10000 nM. As for `COC(=O)CCCCCCN1C(=O)CC[C@@H]1/C=C/[C@@H](O)CCC#Cc1ccccc1` (single isomer, unassigned) [Example 5A], the EC50 at rat EP4 receptor was 77.7 nM; on rat EP2 receptor it was greater than 10000 nM. For `COC(=O)CCCCCCN1C(=O)CC[C@@H]1/C=C/[C@H](O)CCC#Cc1ccccc1` (single isomer, unassigned) [Example 5B] the same measures were 41.5 nM and greater than 5000 nM. The corresponding values for `CCC#C[C@H](O)/C=C/[C@H]1CCC(=O)N1CCCCCCC(=O)OC` (single isomer, unassigned) [Example 6A] are 6.71 nM and greater than 3000 nM. Turning to `CCC#C[C@@H](O)/C=C/[C@H]1CCC(=O)N1CCCCCCC(=O)OC` (single isomer, unassigned) [Example 6B], the EC50 at rat EP2 receptor was greater than 2000 nM. Regarding `CCC#CC[C@@H](C)[C@H](O)/C=C/[C@H]1CCC(=O)N1CCCCCCC(=O)O` [Example 2F, 7-((R)-2-((3S,4R,E)-3-hydroxy-4-methylnon-1-en-6-yn-1-yl)-5-oxopyrrolidin-1-yl)heptanoic acid], at rat EP4 receptor, the EC50 is 1.06 ± 0.11 nM. On the same count and under the same terms, the figure for `O=C(O)CCCCCCN1C(=O)CC[C@@H]1/C=C/[C@@H](O)CCC#Cc1ccccc1` [Example 5C, 7-((R)-2-((3S,E)-3-hydroxy-7-phenylhept-1-en-6-yn-1-yl)-5-oxopyrrolidin-1-yl)heptanoic acid] is 111 nM; for `O=C(O)CCCCCCN1C(=O)CC[C@@H]1/C=C/[C@H](O)CCC#Cc1ccccc1` [Example 5D, 7-((R)-2-((3R,E)-3-hydroxy-7-phenylhept-1-en-6-yn-1-yl)-5-oxopyrrolidin-1-yl)heptanoic acid] it is 46.8 nM; for `CCC#C[C@H](O)/C=C/[C@H]1CCC(=O)N1CCCCCCC(=O)O` [Example 6C, 7-((R)-2-((R,E)-3-hydroxyhept-1-en-4-yn-1-yl)-5-oxopyrrolidin-1-yl)heptanoic acid] it is 4.73 nM. Still for that read-out and setting: to `CCC#C[C@@H](O)/C=C/[C@H]1CCC(=O)N1CCCCCCC(=O)O` [Example 6D, 7-((R)-2-((S,E)-3-hydroxyhept-1-en-4-yn-1-yl)-5-oxopyrrolidin-1-yl)heptanoic acid] belongs 4.79 nM. Consider `O=C(O)CCCCCCN1C(=O)CC[C@@H]1/C=C/[C@@H](O)C#Cc1ccccc1` [Example 7C, 7-((R)-2-((R,E)-3-hydroxy-5-phenylpent-1-en-4-yn-1-yl)-5-oxopyrrolidin-1-yl)heptanoic acid], for which the EC50 is 22.3 nM on rat EP4 receptor and greater than 10000 nM on rat EP2 receptor. For `CCC#CCC(C)[C@H](O)/C=C/[C@H]1CCC(=O)N1CC#Cc1ccc(C(=O)O)s1` (stereo partly drawn) [Example 13C, 5-(3-((2R)-2-((3S,E)-3-hydroxy-4-methylnon-1-en-6-yn-1-yl)-5-oxopyrrolidin-1-yl)prop-1-yn-1-yl)thiophene-2-carboxylic acid] the same measures were 18.3 nM and greater than 10000 nM. Consider `CCC#CCC(C)[C@@H](O)/C=C/[C@H]1CCC(=O)N1CC#Cc1ccc(C(=O)O)s1` (stereo partly drawn) [Example 13D, 5-(3-((2R)-2-((3R,E)-3-hydroxy-4-methylnon-1-en-6-yn-1-yl)-5-oxopyrrolidin-1-yl)prop-1-yn-1-yl)thiophene-2-carboxylic acid], for which the EC50 at rat EP2 receptor was greater than 10000 nM.
